According to ChEMBL document CHEMBL1129513, “Nonpeptidic inhibitors of human neutrophil elastase. 7. Design, synthesis, and in vitro activity of a series of pyridopyrimidine trifluoromethyl ketones” (J Med Chem, 1996):
pKi: −log10 of the molar value. Values after ≈ are worked out from the molar mass of the structure shown.

Tests used:
[1] = Solubility in 0.01 M sodium phosphate buffer at pH = 7.4; assay type: physicochemical
Neutrophil elastase = target: T1, Neutrophil elastase (Homo sapiens, UniProt P08246); assay: Inhibition of Human Neutrophil Elastase-catalyzed hydrolysis of the synthetic substrate MeO-Suc-Ala-Ala-Pro-Val-p- nitroanilide.
T1 sequence (P08246 whole entry): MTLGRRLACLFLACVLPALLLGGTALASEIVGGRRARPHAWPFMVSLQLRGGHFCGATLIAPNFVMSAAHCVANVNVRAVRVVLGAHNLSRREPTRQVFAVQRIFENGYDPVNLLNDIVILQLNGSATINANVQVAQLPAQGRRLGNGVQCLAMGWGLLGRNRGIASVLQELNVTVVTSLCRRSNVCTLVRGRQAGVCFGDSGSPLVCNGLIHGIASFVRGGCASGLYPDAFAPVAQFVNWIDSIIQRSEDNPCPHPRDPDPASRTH

Structure (SMILES) | solubility [1] | pKi (Neutrophil elastase)
CC(C)C(NC(=O)Cn1cccc(NC(=O)OCc2ccccc2)c1=O)C(=O)C(F)(F)F (centres undefined) | 110 µg/mL (≈ 243 µM) | –
CC(C)[C@@H](NC(=O)Cn1c(-c2ccccc2)cc2c(=O)n(CC(=O)OCc3ccccc3)c(=O)[nH]c2c1=O)C(=O)C(F)(F)F | – | 8.55
CC(=O)Cn1c(=O)[nH]c2c(=O)n(CC(=O)NC(C(=O)C(F)(F)F)C(C)C)ccc2c1=O (centres undefined) | – | 6.51
CC(C)C(NC(=O)Cn1c(-c2ccccc2)cc2c(O)nc(O)nc2c1=O)C(=O)C(F)(F)F (centres undefined) | 220 µg/mL (≈ 474 µM) | 7.82
COC(Cn1c(=O)[nH]c2c(=O)n(CC(=O)NC(C(=O)C(F)(F)F)C(C)C)c(-c3ccccc3)cc2c1=O)OC (centres undefined) | 420 µg/mL (≈ 760 µM) | 7.92
CC(C)C(NC(=O)Cn1ccc2c(=O)n(Cc3ccccc3)c(=O)[nH]c2c1=O)C(=O)C(F)(F)F (centres undefined) | 730 µg/mL (≈ 1530 µM) | 6.80
CC(C)[C@@H](NC(=O)Cn1c(-c2ccccc2)cc2c(=O)n(CC(N)=O)c(=O)[nH]c2c1=O)C(=O)C(F)(F)F | 130 µg/mL (≈ 249 µM) | 7.82
CC(C)C(NC(=O)Cn1ccc2c(=O)n(CCc3ccccc3)c(=O)[nH]c2c1=O)C(=O)C(F)(F)F (centres undefined) | – | 7.38
CC(C)C(NC(=O)Cn1c(-c2ccccc2)cc2c(=O)n(C)c(=O)[nH]c2c1=O)C(=O)C(F)(F)F (centres undefined) | 44 µg/mL (≈ 92 µM) | 8.00
COc1ccc(Cn2c(=O)[nH]c3c(=O)n(CC(=O)NC(C(=O)C(F)(F)F)C(C)C)c(-c4ccccc4)cc3c2=O)cc1 (centres undefined) | 230 µg/mL (≈ 393 µM) | 8.24
COC(=O)Cn1c(=O)[nH]c2c(=O)n(CC(=O)N[C@@H](C(=O)C(F)(F)F)C(C)C)ccc2c1=O | – | 6.31
CCOCCn1c(=O)[nH]c2c(=O)n(CC(=O)NC(C(=O)C(F)(F)F)C(C)C)c(-c3ccccc3)cc2c1=O (centres undefined) | 8 µg/mL (≈ 14.9 µM) | 8.12
CC(C)[C@@H](NC(=O)Cn1ccc2c(=O)n(CC(=O)OC(C)(C)C)c(=O)[nH]c2c1=O)C(=O)C(F)(F)F | – | 6.54
CC(C)C(NC(=O)Cn1ccc2c(=O)n(Cc3cccc4ccccc34)c(=O)[nH]c2c1=O)C(=O)C(F)(F)F (centres undefined) | – | 7.59
CC(C)C(NC(=O)Cn1ccc2c(=O)n(CC(=O)c3ccccc3)c(=O)[nH]c2c1=O)C(=O)C(F)(F)F (centres undefined) | – | 7.13
CC(C)C(NC(=O)Cn1c(-c2ccccc2)cc2c(=O)n(CCN3CCOCC3)c(=O)[nH]c2c1=O)C(=O)C(F)(F)F (centres undefined) | 300 µg/mL (≈ 519 µM) | 8.08
CC(C)C(NC(=O)Cn1ccc2c(=O)n(C(C)(C)Cc3ccccc3)c(=O)[nH]c2c1=O)C(=O)C(F)(F)F (centres undefined) | – | 7.80
CC(C)C(NC(=O)Cn1ccc2c(=O)n(C)c(=O)[nH]c2c1=O)C(=O)C(F)(F)F (centres undefined) | – | 6.21
CNC(=O)Cn1c(=O)[nH]c2c(=O)n(CC(=O)NC(C(=O)C(F)(F)F)C(C)C)c(-c3ccccc3)cc2c1=O (centres undefined) | 100 µg/mL (≈ 187 µM) | 7.66
CC(C)C(NC(=O)Cn1ccc2c(=O)n(CCN3CCOCC3)c(=O)[nH]c2c1=O)C(=O)C(F)(F)F (centres undefined) | – | 6.48
CC(C)C(NC(=O)Cn1ccc2c(=O)n(CCc3cccc4ccccc34)c(=O)[nH]c2c1=O)C(=O)C(F)(F)F (centres undefined) | – | 7.68
CC(C)[C@@H](NC(=O)Cn1ccc2c(=O)n(CC(=O)O)c(=O)[nH]c2c1=O)C(=O)C(F)(F)F | – | 6.16
CC(C)C(NC(=O)Cn1c(-c2ccccc2)cc2c(=O)n(CC(=O)NCc3ccccc3)c(=O)[nH]c2c1=O)C(=O)C(F)(F)F (centres undefined) | – | 8.00
CC(C)C(NC(=O)Cn1ccc2c(=O)[nH]c(=O)[nH]c2c1=O)C(=O)C(F)(F)F (centres undefined) | > 5000 µg/mL | 6.04
CC(C)C(NC(=O)Cn1ccc2c(=O)n([C@H]3C[C@@H]3c3ccccc3)c(=O)[nH]c2c1=O)C(=O)C(F)(F)F (some centres undefined) | – | 6.64
CC(C)C(NC(=O)Cn1ccc2c(=O)n(-c3ccccc3)c(=O)[nH]c2c1=O)C(=O)C(F)(F)F (centres undefined) | – | 6.08
CC(C)C(NC(=O)Cn1c(-c2ccccc2)cc2c(=O)n(N(C)C)c(=O)[nH]c2c1=O)C(=O)C(F)(F)F (centres undefined) | 320 µg/mL (≈ 631 µM) | 7.72
COc1ccc(Cn2c(=O)[nH]c3c(=O)n(CC(=O)NC(C(=O)C(F)(F)F)C(C)C)ccc3c2=O)cc1 (centres undefined) | – | 7.00
